Test results: ChEMBL document CHEMBL1132074, “Potent and selective bicyclic lactam inhibitors of thrombin: Part 3: P1' modifications” (Bioorg Med Chem Lett, 1999)

Experiments:
Serine protease 1 [1] = target: T1, Serine protease 1 (Homo sapiens, UniProt P07477); experiment: In vitro inhibitory activity against human trypsin
Prothrombin = Prothrombin (Homo sapiens, UniProt P00734); experiment: Inhibition of human Thrombin
Serine protease 1 [2] = target: T1, Serine protease 1; experiment: In vitro inhibitory activity against human trypsin at 100 uM

T1 sequence (P07477 whole entry): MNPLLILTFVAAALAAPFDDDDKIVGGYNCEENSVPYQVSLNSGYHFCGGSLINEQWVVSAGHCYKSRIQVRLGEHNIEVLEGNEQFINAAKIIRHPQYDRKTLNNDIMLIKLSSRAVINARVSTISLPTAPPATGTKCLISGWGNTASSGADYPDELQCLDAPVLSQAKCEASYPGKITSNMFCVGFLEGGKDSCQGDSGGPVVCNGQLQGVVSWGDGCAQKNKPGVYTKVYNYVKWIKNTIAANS

SMILES: Cc1nc(C(=O)[C@H](CCCN=C(N)N)NC(=O)[C@@H]2CC[C@H]3CN(C(=O)CCc4ccccc4)CC(=O)N32)sc1CCO
- IC50 (Serine protease 1 [1]): 12 nM
- IC50 (Prothrombin): 15 nM

SMILES: N=C(N)NCCC[C@H](NC(=O)[C@@H]1CC[C@H]2CN(C(=O)CCc3ccccc3)CC(=O)N21)C(=O)c1nc2c(s1)CCC2
- IC50 (Serine protease 1 [1]): 2 nM
- IC50 (Prothrombin): 18 nM

SMILES: N=C(N)N1CCCC(C[C@H](NC(=O)[C@@H]2CC[C@H]3CN(C(=O)CCc4ccccc4)CC(=O)N32)C(=O)c2nc3ccccc3s2)C1 (some centres not stated)
- IC50 (Serine protease 1 [1]): 590 nM
- IC50 (Prothrombin): < 1 nM

SMILES: Cc1csc(C(=O)C(CCCNC(=N)N)NC(=O)[C@@H]2CC[C@H]3CN(C(=O)CCc4ccccc4)CC(=O)N32)n1 (some centres not stated)
- IC50 (Serine protease 1 [1]): 24 nM
- IC50 (Prothrombin): 44 nM

SMILES: Cn1c(C(=O)[C@H](CCCNC(=N)N)NC(=O)[C@@H]2CC[C@H]3CN(C(=O)CCc4ccccc4)CC(=O)N32)nc2ccccc21
- IC50 (Serine protease 1 [1]): 3360 nM
- IC50 (Prothrombin): 51 nM

SMILES: Cn1c(C(=O)[C@H](Cc2cccc(C(=N)N)c2)NC(=O)[C@@H]2CC[C@H]3CN(C(=O)CCc4ccccc4)CC(=O)N32)nc2ccccc21
- IC50 (Serine protease 1 [1]): 18700 nM
- IC50 (Prothrombin): 450 nM

SMILES: N=C(N)c1cccc(CC(NC(=O)[C@@H]2CC[C@H]3CN(C(=O)CCc4ccccc4)CC(=O)N32)C(=O)c2nc3ccccc3s2)c1 (some centres not stated)
- IC50 (Serine protease 1 [1]): 970 nM
- IC50 (Prothrombin): 57 nM

SMILES: N=C(N)NCCC[C@H](NC(=O)[C@@H]1CC[C@H]2CN(C(=O)CCc3ccccc3)CC(=O)N21)C(=O)c1ccccn1
- IC50 (Serine protease 1 [1]): 160 nM
- IC50 (Prothrombin): 340 nM

SMILES: N=C(N)NCCC[C@H](NC(=O)[C@@H]1CC[C@H]2CN(C(=O)CCc3ccccc3)CC(=O)N21)C(=O)c1nc2ccccc2s1
- IC50 (Serine protease 1 [1]): < 1 nM
- IC50 (Prothrombin): < 1 nM

SMILES: N=C(N)NCCC[C@H](NC(=O)[C@@H]1CC[C@H]2CN(C(=O)CCc3ccccc3)CC(=O)N21)C(=O)c1nccs1
- IC50 (Serine protease 1 [1]): < 1 nM

SMILES: Cn1c(C(=O)[C@H](CC2CCCN(C(=N)N)C2)NC(=O)[C@@H]2CC[C@H]3CN(C(=O)CCc4ccccc4)CC(=O)N32)nc2ccccc21 (some centres not stated)
- IC50 (Prothrombin): 750 nM
- inhibition (Serine protease 1 [2]): 40%

SMILES: Cn1c(C(=O)[C@H](CCCCN)NC(=O)[C@@H]2CC[C@H]3CN(C(=O)CCc4ccccc4)CC(=O)N32)nc2ccccc21
- IC50 (Serine protease 1 [1]): 8490 nM
- IC50 (Prothrombin): 2050 nM

SMILES: Cn1ccnc1C(=O)[C@H](CCCNC(=N)N)NC(=O)[C@@H]1CC[C@H]2CN(C(=O)CCc3ccccc3)CC(=O)N21
- IC50 (Serine protease 1 [1]): 27400 nM
- IC50 (Prothrombin): 2370 nM

SMILES: NCCCC[C@H](NC(=O)[C@@H]1CC[C@H]2CN(C(=O)CCc3ccccc3)CC(=O)N21)C(=O)c1nccs1
- IC50 (Serine protease 1 [1]): 14 nM
- IC50 (Prothrombin): 77 nM
